Test results: US10093697B2, “IBAT inhibitors for the treatment of liver diseases” (Albireo AB, priority 2010, dated 2018)

test system: Mdr2−/− mice; assay: In vivo animal model of primary sclerosing cholangitis (Mdr2-/- mice); conditions: daily oral gavage for 2-4 weeks, vs vehicle
Description: A genetic mice with targeted disruption of the Multidrug resistant Mdr2 (Abcb4) gene encoding a canalicular phospholipid flippase (Mdr2−/−mice) spontaneously develop sclerosing cholangitis with macroscopic and microscopic features of human Primary sclerosing cholangitis. Bile duct injury in these mice is linked to defective biliary phospholipid secretion resulting in an increased concentration of free non-micellar bile acids which subsequently cause bile duct epithelial cell (cholangiocyte) injury, pericholangitis, periductal fibrosis with ductular proliferation and finally sclerosing cholangitis. […] In analogy to the Mdr2−/− mouse model of sclerosing cholangitis, Multidrug resistant protein MDR3/ABCB4 (the human orthologue of rodent Mdr2/Abcb4) defects play a role in the pathogenesis of various cholangiopathies in humans. MDR3 variants play a role as a modifier gene in the pathogenesis of various cholangiopathies such as PSC, Primary Biliary cirrhosis (PBC) and adulthood idiopathic ductopenia/biliary fibrosis.
Mdr2−/− mice were given daily oral doses of the compound of Example 14 by gavage for 2-4 weeks and controls were dosed the vehicle in the same way. Serum liver tests, liver histology and fibrosis were investigated. The compound of Example 14 improves liver tests, liver histology and fibrosis.

Structure (SMILES) | fibrosis | liver histology | liver tests (serum)
CCCCC1(CCCC)CN(c2ccccc2)c2cc(SC)c(OCC(=O)N[C@@H](C(=O)NCC(=O)O)c3ccccc3)cc2S(=O)(=O)C1 [Example 14, 1,1-Dioxo-3,3-dibutyl-5-phenyl-7-methylthio-8-(N—{(R)-1′-phenyl-1′-[N′-(carboxymethyl)carbamoyl]methyl}carbamoylmethoxy)-2,3,4,5-tetrahydro-1,5-benzothiazepine] | improves | improves | improves

biological target: IBAT (Mus musculus (Mouse), UniProt P70172); assay: 75SeHCAT intestinal absorption in ApoE knock out mice (IBAT inhibitory effect); format: in vivo; conditions: po, oral dose 0.156 μmol/kg, 75SeHCAT absorption over 24 hours
Sequence (P70172 whole entry): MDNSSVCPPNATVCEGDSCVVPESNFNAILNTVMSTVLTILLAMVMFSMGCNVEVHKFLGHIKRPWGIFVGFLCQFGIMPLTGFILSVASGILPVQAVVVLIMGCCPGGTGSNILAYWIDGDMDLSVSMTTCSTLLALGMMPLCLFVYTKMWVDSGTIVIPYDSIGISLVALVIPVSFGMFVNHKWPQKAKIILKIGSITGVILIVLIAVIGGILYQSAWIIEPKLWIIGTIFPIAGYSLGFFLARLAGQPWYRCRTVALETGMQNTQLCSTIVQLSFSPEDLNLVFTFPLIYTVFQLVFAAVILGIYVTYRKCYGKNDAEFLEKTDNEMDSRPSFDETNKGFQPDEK
Method: Species Mouse; Strain ApoE knock out; Sub strain C57BL/6; Sex Female; Total No. of animals 70; Body weight range 20 g to 22 g; Supplier Möllegaard's Breeding (Skensved, Denmark); Identification method ID cards (bar code).
Acclimatisation At least one week at the Section of Laboratory; Animal Resource at AstraZeneca; Housing conditions Kept five by five in cages (Makrolon III, 7 dm2) in a room with regulated temperature (22° C.), relative humidity (40% to 60%) and a 12/12 hours light/dark cycle. Diet Free access to R3 pellets (Lactamin, Vadstena, Sweden) during the housing and experimental period. Water, free access to tap water during the housing and experimental period.
The animals were orally administered vehicle (n=3) or the compound of Example 14 (0.156 (n=3), 0.625 (n=3) or 2.5 μmol/kg (n=3)) at 13:00 o'clock on the experimental day. Thirty minutes later, a trace amount of ^75SeHCAT (^75Se-homo-tauro-cholic acid) ([…] per 0.1 mL per mouse) was orally given to each mouse. Twenty-four hours after ^75SeHCAT administration, the animals were killed by CO2 inhalation. At sacrifice, the gall bladder and the whole intestine were removed, and the faeces during the 24-hour period after ^75SeHCAT administration was collected for each mouse. The gamma radioactivities of ^75SeHCAT in the faeces and in the gall bladder-intestine were separately counted by 1282 CompuGamma CS Gamma counter (Wallac oy, Turku, Finland). The stability as well as the quantity of the ^75SeHCAT administered to each mouse, were controlled with an additional ^75SeHCAT aliquot following the same experimental process as other tested samples in the study.
The sum of the gamma counts from both the faeces and the gall bladder-intestine was considered as the total recovered ^75SeHCAT, which was averaged around 85% of the total ^75SeHCAT administered to each mouse. Of the recovered radioactivity of ^75SeHCAT, the percentage of the ^75SeHCAT detected in the faeces was considered as the faecal excretion while that in the gall bladder-intestine as body retention. Inhibitory effect of the compound of Example 14 on ^75SeHCAT intestinal absorption was calculated following the ^75SeHCAT body retention and the faecal excretion, and the ED50 of the compound was estimated following the dose-effect curve.
The mean IBAT inhibitory effect (%) at a dose (μmol/kg): 0.156 was determined for the compounds of examples 1-14 and is reported in Table 1.

Structure (SMILES) | inhibition at 0.156 µmol/kg
CCCCC1(CCCC)CN(c2ccccc2)c2cc(SC)c(OCC(=O)N[C@@H](C(=O)N[C@@H](CC)C(=O)O)c3ccc(O)cc3)cc2S(=O)(=O)N1 [Example 5, 1,1-Dioxo-3,3-dibutyl-5-phenyl-7-methylthio-8-(N—{(R)-α-[N—((S)-1-carboxypropyl)carbamoyl]-4-hydroxybenzyl}carbamoylmethoxy)-2,3,4,5-tetrahydro-1,2,5-benzothiadiazepine] | 74%
CCCCC1(CCCC)CN(c2ccccc2)c2cc(SC)c(OCC(=O)N[C@@H](C(=O)N[C@@H](CSC)C(=O)O)c3ccc(O)cc3)cc2S(=O)(=O)N1 [Example 6, 1,1-Dioxo-3,3-dibutyl-5-phenyl-7-methylthio-8-(N—{(R)-α-[N—((R)-1-carboxy-2-methylthio-ethyl)carbamoyl]-4-hydroxybenzyl}carbamoylmethoxy)-2,3,4,5-tetra hydro-1,2,5-benzothiadiazepine] | 59%
CCCCC1(CCCC)CN(c2ccccc2)c2cc(SC)c(OCC(=O)N[C@@H](C(=O)N[C@H](C(=O)O)C(C)C)c3ccccc3)cc2S(=O)(=O)N1 [Example 7, 1,1-Dioxo-3,3-dibutyl-5-phenyl-7-methylthio-8-(N—{(R)-α-[N—((S)-1-carboxy-2-methylpropyl)carbamoyl]benzyl}carbamoylmethoxy)-2,3,4,5-tetrahydro-1,2,5-benzothiadiazepine] | 66%
CCCCC1(CCCC)CN(c2ccccc2)c2cc(SC)c(OCC(=O)N[C@@H](C(=O)N[C@H](C(=O)O)[C@@H](C)O)c3ccc(O)cc3)cc2S(=O)(=O)N1 [Example 8, 1,1-Dioxo-3,3-dibutyl-5-phenyl-7-methylthio-8-(N—{(R)-α-[N—((S)-1-carboxy-2-(R)-hydroxypropyl)carbamoyl]-4-hydroxybenzyl}carbamoylmethoxy)-2,3,4,5-tetrahydro-1,2,5-benzothiadiazepine] | 46%
CCCCC1(CCCC)CN(c2ccccc2)c2cc(SC)c(OCC(=O)N[C@@H](C(=O)N[C@@H](CCC)C(=O)O)c3ccc(O)cc3)cc2S(=O)(=O)N1 [Example 9, 1,1-Dioxo-3,3-dibutyl-5-phenyl-7-methylthio-8-(N—{(R)-α-[N—((S)-1-carboxybutyl)carbamoyl]-4-hydroxybenzyl}carbamoylmethoxy)-2,3,4,5-tetrahydro-1,2,5-benzothiadiazepine] | 67%
CCCCC1(CCCC)CN(c2ccccc2)c2cc(SC)c(OCC(=O)N[C@@H](C(=O)N[C@@H](C)C(=O)O)c3ccc(O)cc3)cc2S(=O)(=O)N1 [Example 12, 1,1-Dioxo-3,3-dibutyl-5-phenyl-7-methylthio-8-(N—{(R)-α-[N—((S)-1-carboxyethyl)carbamoyl]-4-hydroxybenzyl}carbamoylmethoxy)-2,3,4,5-tetrahydro-1,2,5-benzothiadiazepine] | 63%
CCCCC1(CCCC)CN(c2ccccc2)c2cc(SC)c(OCC(=O)N[C@@H](C(=O)N[C@H](C(=O)O)C(C)C)c3ccc(O)cc3)cc2S(=O)(=O)N1 [Example 13, 1,1-Dioxo-3,3-dibutyl-5-phenyl-7-methylthio-8-(N—{(R)-α-[N—((S)-1-carboxy-2-methylpropyl)carbamoyl]-4-hydroxybenzyl}carbamoylmethoxy)-2,3,4,5-tetra hydro-1,2,5-benzothiadiazepine] | 68%

Further lines, results first:

inhibition at 0.156 µmol/kg | Structure (SMILES)
43% | CCCCC1(CCCC)CN(c2ccccc2)c2cc(SC)c(OCC(=O)N[C@@H](C(=O)NCC(=O)O)c3ccccc3)cc2S(=O)(=O)N1 [Example 1, 1,1-Dioxo-3,3-dibutyl-5-phenyl-7-methylthio-8-(N—{(R)-α-[N-(carboxymethyl)carbamoyl]benzyl}carbamoylmethoxy)-2,3,4,5-tetrahydro-1,2,5-benzothiadiazepine]
63% | CCCCC1(CCCC)CN(c2ccccc2)c2cc(SC)c(OCC(=O)N[C@@H](C(=O)N[C@@H](CC)C(=O)O)c3ccccc3)cc2S(=O)(=O)N1 [Example 3, 1,1-Dioxo-3,3-dibutyl-5-phenyl-7-methylthio-8-(N—{(R)-α-[N—((S)-1-carboxypropyl)carbamoyl]benzyl}carbamoylmethoxy)-2,3,4,5-tetrahydro-1,2,5-benzothiadiazepine]
63% | CCCCC1(CCCC)CN(c2ccccc2)c2cc(SC)c(OCC(=O)N[C@@H](C(=O)N[C@@H](CSC)C(=O)O)c3ccccc3)cc2S(=O)(=O)N1 [Example 4, 1,1-Dioxo-3,3-dibutyl-5-phenyl-7-methylthio-8-(N—{(R)-α-[N—((R)-1-carboxy-2-methylthioethyl)carbamoyl]benzyl}carbamoylmethoxy)-2,3,4,5-tetrahydro-1,2,5-benzothiadiazepine]
68% | CCCCC1(CCCC)CN(c2ccccc2)c2cc(SC)c(OCC(=O)N[C@@H](C(=O)N[C@@H](C)C(=O)O)c3ccccc3)cc2S(=O)(=O)N1 [Example 10, 1,1-Dioxo-3,3-dibutyl-5-phenyl-7-methylthio-8-(N—{(R)-α-[N—((S)-1-carboxyethyl)carbamoyl]benzyl}carbamoylmethoxy)-2,3,4,5-tetrahydro-1,2,5-benzothiadiazepine]
28% | CCCCC1(CCCC)CN(c2ccccc2)c2cc(SC)c(OCC(=O)N[C@@H](C(=O)NCC(=O)O)c3ccccc3)cc2S(=O)(=O)C1 [Example 14, 1,1-Dioxo-3,3-dibutyl-5-phenyl-7-methylthio-8-(N—{(R)-1′-phenyl-1′-[N′-(carboxymethyl)carbamoyl]methyl}carbamoylmethoxy)-2,3,4,5-tetrahydro-1,5-benzothiazepine]

biological target: Ileal Bile Acid Transporter Human (Homo sapiens (Human), UniProt Q12908); assay: ISBT Hu HEK Uptake SPA: glycocholic acid uptake, radiometric SPA; format: cell-based; conditions: human IBAT in HEK cells
Sequence (Q12908 whole entry): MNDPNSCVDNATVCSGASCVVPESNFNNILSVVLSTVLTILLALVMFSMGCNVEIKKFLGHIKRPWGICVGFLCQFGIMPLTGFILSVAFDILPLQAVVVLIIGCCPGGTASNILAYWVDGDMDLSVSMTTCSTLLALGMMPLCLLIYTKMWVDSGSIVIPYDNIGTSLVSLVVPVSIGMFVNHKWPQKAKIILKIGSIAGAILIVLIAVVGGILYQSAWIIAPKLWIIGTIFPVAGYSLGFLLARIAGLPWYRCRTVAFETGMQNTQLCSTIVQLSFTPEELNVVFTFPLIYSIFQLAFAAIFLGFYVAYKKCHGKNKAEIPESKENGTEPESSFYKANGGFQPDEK
Method: ISBT Hu HEK Uptake SPA 13203 IBAT HUM Ileal Bile Acid Transporter Human HEK Glycocholic acid Uptake Radiometric—SPA Inhibitor IC50 Mean IC50 (nM) was determined for the compounds of examples 1-14

IC50 | Structure (SMILES)
0.13 nM | CCCCC1(CCCC)CN(c2ccccc2)c2cc(SC)c(OCC(=O)N[C@@H](C(=O)N[C@H](C(=O)O)C(C)C)c3ccc(O)cc3)cc2S(=O)(=O)N1 [Example 13, 1,1-Dioxo-3,3-dibutyl-5-phenyl-7-methylthio-8-(N—{(R)-α-[N—((S)-1-carboxy-2-methylpropyl)carbamoyl]-4-hydroxybenzyl}carbamoylmethoxy)-2,3,4,5-tetra hydro-1,2,5-benzothiadiazepine]
